In US10000473B2, “Indazole derivatives useful as glucagon receptor antagonists” (Janssen Pharmaceutica NV, priority 2016, dated 2018):
Several values for one entry are separate records, joined by “and”; a condition that tells them apart may be missing. Equal values may be shown once.

Target: T1, human GCGR (Homo sapiens, UniProt P47871)
T1 construct: expressed in transfected cells; host or cells: HEK293 (hGluc-1HEK), pcDNA3.1, G418 selection
Test: Cellular functional assay, cAMP readout (glucagon-stimulated cAMP, LANCE TR-FRET)
Assay type: cell-based
Conditions: HEK293 cells stably expressing full-length human GCGR; glucagon 100 pM; IC50 converted to Ki; read-out: Inhibition of cAMP Ki
Experimental: IC50 Values in Cellular Functional Assays: cAMP Readout
Full-length human GCGR (Accession Number: NM000160) subcloned into pcDNA3.1 was stably transfected into HEK293 cells (hGluc-1HEK) and maintained under G418 selection (500 μg/mL). Cell cultures were maintained in DMEM/F12 media supplemented with 10% FBS and 1% GlutaMax™ Supplement (Available from ThermoFisher Scientific, catalog #35050061). Glucagon stimulated cAMP was quantified using LANCE technology as per manufacturer instructions. On the day of the experiment, spent media was removed and cells were washed with Hank's Buffered Saline solution (HBSS), and cells harvested with non-enzymatic cell dissociation solution, then washed once with HBSS. Cells were re-suspended in stimulation buffer at a concentration of 0.83×10^6 cells/ml and cAMP detection antibody was added. 6 μl/well of this solution was then dispensed in a 384 well plate (cell density 5000 cells/well). Test compound was serially diluted in DMSO and 50 nl were dispensed on top of the cell solution and allowed to incubate for 30 minutes. 6 μl of a 2× glucagon solution (final concentration in assay 100 pM) was then added and the reaction was terminated after 5 minutes with the addition of detection mix. The resulting mixture was incubated, protected from light for 1.5 h. cAMP levels were quantified by TR-FRET in an EnVision instrument against a known standard. IC50's were generated by using a non-linear regression macro driven in Excel and converted to Ki values.

T1 sequence (P47871 26-477): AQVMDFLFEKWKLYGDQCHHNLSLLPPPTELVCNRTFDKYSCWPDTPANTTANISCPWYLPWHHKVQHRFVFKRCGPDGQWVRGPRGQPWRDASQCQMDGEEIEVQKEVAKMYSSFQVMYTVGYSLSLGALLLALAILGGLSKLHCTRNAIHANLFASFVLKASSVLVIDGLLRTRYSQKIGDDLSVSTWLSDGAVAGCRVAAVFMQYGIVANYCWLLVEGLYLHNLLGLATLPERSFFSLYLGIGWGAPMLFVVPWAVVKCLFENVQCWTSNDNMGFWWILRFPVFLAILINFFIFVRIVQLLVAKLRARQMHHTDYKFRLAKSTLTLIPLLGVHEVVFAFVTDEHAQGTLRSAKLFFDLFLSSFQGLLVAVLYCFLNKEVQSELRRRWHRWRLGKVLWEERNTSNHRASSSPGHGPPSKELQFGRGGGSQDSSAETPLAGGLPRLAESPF

SMILES | Ki
CC(C)(C)c1ccc(-c2ccc3nn(C(CC4CCCCC4)c4ccc(C(=O)NCCC(=O)O)cc4)cc3c2)cc1 (centres unmarked) [Compound #228, 3-(4-(1-(5-(4-(tert-Butyl)phenyl)-2H-indazol-2-yl)-2-cyclohexylethyl)benzamido)propanoic acid] | 130 nM
O=C(O)CCNC(=O)c1ccc(C(CCC(F)(F)F)n2cc3cc(-c4ccc(Cl)cc4Cl)ccc3n2)cc1 (centres unmarked) [Compound #224, 3-[[4-[1-[5-(2,4-Dichlorophenyl)indazol-2-yl]-4,4,4-trifluorobutyl]benzoyl]amino]propanoic acid] | 110 nM
O=C(O)CCNC(=O)c1ccc(C(CCC(F)(F)F)n2ncc3cc(-c4ccc(F)cc4Cl)ccc32)cc1 (centres unmarked) [Compound #223, 3-(4-(1-(5-(2-Chloro-4-fluorophenyl)-1H-indazol-1-yl)-4,4,4-trifluorobutyl)benzamido)propanoic acid] | 950 nM
O=C(O)CCNC(=O)c1ccc(C(CC2CCCC2)n2ncc3cc(-c4ccc(C(F)(F)F)cc4)ccc32)cc1 (centres unmarked) [compound 208] | 175 nM
CC(C)(F)CC(c1ccc(C(=O)NCCC(=O)O)cc1)n1ncc2cc(-c3ccc(C(F)(F)F)cc3)ccc21 (centres unmarked) [Compound #185, 3-(4-(3-Fluoro-3-methyl-1-(5-(4-(trifluoromethyl)phenyl)-1H-indazol-1-yl)butyl)benzamido)propanoic acid] | 430 nM
Cc1c(-c2ccc(C(F)(F)F)c(Cl)c2)ccc2nn(C(CC(C)C)c3ccc(C(=O)NCCC(=O)O)cc3)cc12 (centres unmarked) [Compound #149, 3-(4-(1-(5-(3-Chloro-4-(trifluoromethyl)phenyl)-4-methyl-2H-indazol-2-yl)-3-methylbutyl)benzamido)propanoic acid] | 70 nM
CC(C)CC(c1ccc(C(=O)NCCC(=O)O)cc1)n1cc2cc(-c3cc4ccc(F)cc4s3)ccc2n1 (centres unmarked) [compound 57] | 170 nM
CC(C)CC(c1ccc(C(=O)NCCC(=O)O)nc1)n1ncc2cc(-c3ccc(C(F)(F)F)cc3)ccc21 (centres unmarked) [compound 74] | 255 nM
Cc1cc(Cl)ccc1-c1ccc2c(cnn2C(CCC2CCCCC2)c2ccc(C(=O)NCCC(=O)O)cc2)c1 (centres unmarked) [compound 157] | 250 nM
Cc1c(-c2ccc(C(F)(F)F)cc2Cl)ccc2nn(C(CC(C)C)c3ccc(C(=O)NCCC(=O)O)cc3)cc12 (centres unmarked) [Compound #18, 3-(4-(1-(5-(2-Chloro-4-(trifluoromethyl)phenyl)-4-methyl-2H-indazol-2-yl)-3-methylbutyl)benzamido)propanoic acid] | 14 nM and 44 nM
CCOc1c(-c2ccc(C(F)(F)F)cc2C)ccc2nn(C(CC(C)C)c3ccc(C(=O)NCCC(=O)O)nc3)cc12 (centres unmarked) [Compound #207, 3-(5-(1-(4-Ethoxy-5-(2-methyl-4-(trifluoromethyl)phenyl)-2H-indazol-2-yl)-3-methylbutyl)picolinamido)propanoic acid] | 17 nM
Cc1cc2c(cnn2C(CC(C)C)c2ccc(C(=O)NCCC(=O)O)cc2)cc1-c1cc2ccccc2s1 (centres unmarked) [Compound #174, 3-[[4-[1-[5-(Benzothiophen-2-yl)-6-methyl-indazol-1-yl]-3-methyl-butyl]benzoyl]amino]propanoic acid] | 190 nM
Cc1ccc2sc(-c3ccc4nn(C(CC(C)C)c5ccc(C(=O)NCCC(=O)O)cc5)cc4c3)cc2c1 (centres unmarked) [compound 28] | 260 nM
Cc1cc(C(F)(F)F)ccc1-c1ccc2nn(C(CC(C)C)c3ccc(C(=O)NCCC(=O)O)nc3)cc2c1C(F)(F)F (centres unmarked) [Compound #246, 3-(5-(3-Methyl-1-(5-(2-methyl-4-(trifluoromethyl)phenyl)-4-(trifluoromethyl)-2H-indazol-2-yl)butyl)picolinamido)propanoic acid] | > 5200 nM
Cc1ccc(-c2ccc3nn(C(CC(C)C)c4ccc(C(=O)NCCC(=O)O)cc4)cc3c2C)c(C)c1 (centres unmarked) [Compound #143, 3-(4-(1-(5-(2,4-Dimethylphenyl)-4-methyl-2H-indazol-2-yl)-3-methylbutyl)benzamido)propanoic acid] | 24 nM
O=C(O)CCNC(=O)c1ccc(C(CC2CCCCC2)n2cc3cc(-c4ccc(C(F)(F)F)cc4)ccc3n2)cc1 (centres unmarked) [compound 92] | 63 nM
CC(C)CC(c1ccc(C(=O)NCCC(=O)O)nc1)n1cc2cc(-c3ccc(C(C)(C)C)cc3)ccc2n1 (centres unmarked) [Compound #2] | 700 nM
Cc1cc(C(F)(F)F)ccc1-c1ccc2nn([C@@H](CC(C)C)c3ccc(C(=O)NCCC(=O)O)cc3)cc2c1C [Compound #156, 3-[[4-[(1S)-3-Methyl-1-[4-methyl-5-[2-methyl-4-(trifluoromethyl)phenyl]indazol-2-yl]butyl]benzoyl]amino]propanoic acid] | 22 nM
CCCCCC(c1ccc(C(=O)NCCC(=O)O)cc1)n1cc2cc(-c3ccc(C(F)(F)F)cc3)ccc2n1 (centres unmarked) [compound 171] | 133 nM
CC(C)CC(c1ccc(C(=O)NCCC(=O)O)cc1)n1ncc2cc(-c3cc4ccccc4s3)ccc21 (centres unmarked) [compound 73] | 62 nM
CC(C)CC(c1ccc(C(=O)NCCC(=O)O)cc1)n1cc2cc(-c3ccc4cnn(C)c4c3)ccc2n1 (centres unmarked) [compound 80] | 340 nM

SMILES | Ki
CCCC(c1ccc(C(=O)NCCC(=O)O)cc1)n1ncc2cc(-c3ccc(C(F)(F)F)cc3)ccc21 (centres unmarked) [compound 60] | 300 nM
Cc1cc2nn(C(CC(C)C)c3ccc(C(=O)NCCC(=O)O)cc3)cc2cc1-c1ccc(C(F)(F)F)cc1 (centres unmarked) [Compound #134, 3-[[4-[3-Methyl-1-[6-methyl-5-[4-(trifluoromethyl)phenyl]indazol-2-yl]butyl]benzoyl]amino]propanoic acid] | 195 nM
CC(C)CC(c1ccc(C(=O)NCCC(=O)O)cc1)n1cc2cc(-c3ccc(Cl)cc3Cl)ccc2n1 (centres unmarked) [Compound #226, 3-(4-(1-(5-(2,4-Dichlorophenyl)-2H-indazol-2-yl)-3-methylbutyl)benzamido)propanoic acid] | 242 nM
CC(C)CC(c1ccc(C(=O)NCCC(=O)O)cc1)n1ncc2cc(-c3cnn(C)c3)ccc21 (centres unmarked) [Compound #12, 3-(4-(3-Methyl-1-(5-(1-methyl-1H-pyrazol-4-yl)-1H-indazol-1-yl)butyl)benzamido)propanoic acid] | 2300 nM
Cc1cc(Cl)ccc1-c1ccc2c(cnn2C(CC(C)(C)C)c2ccc(C(=O)NCCC(=O)O)cc2)c1 (centres unmarked) [compound 151] | 90 nM
CC(C)CC(c1ccc(C(=O)NCCC(=O)O)cc1)n1ncc2cc(-c3ccccc3)ccc21 (centres unmarked) [Compound #4] | 1100 nM
CC(C)CC(c1ccc(C(=O)NCCC(=O)O)cc1)n1cc2cc(-c3cc4ccccc4s3)ccc2n1 (centres unmarked) [compound 120] | 58 nM
O=C(O)CCNC(=O)c1ccc(C(CC2CC2)n2ncc3cc(-c4ccc(C(F)(F)F)cc4)ccc32)cc1 (centres unmarked) [compound 32] | 330 nM
O=C(O)CCNC(=O)c1ccc(C(CC2CC2)n2cc3cc(-c4ccc(C(F)(F)F)cc4)ccc3n2)cc1 (centres unmarked) [compound 139] | 200 nM
Cc1cc(Cl)ccc1-c1cc2cnn(C(CC(C)C)c3ccc(C(=O)NCCC(=O)O)nc3)c2cc1Cl (centres unmarked) [Compound #102, 3-[[5-[1-[6-Chloro-5-(4-chloro-2-methyl-phenyl)indazol-1-yl]-3-methyl-butyl]pyridine-2-carbonyl]amino]propanoic acid] | 550 nM
Cc1ccc2sc(-c3ccc4c(cnn4C(CC(C)C)c4ccc(C(=O)NCCC(=O)O)cc4)c3)cc2c1 (centres unmarked) [compound 230] | 280 nM
COc1ccc2cc(-c3ccc4c(cnn4C(CC(C)C)c4ccc(C(=O)NCCC(=O)O)cc4)c3)ccc2c1 (centres unmarked) [compound 222] | 800 nM
CCCC(c1ccc(C(=O)NCCC(=O)O)cc1)n1cc2cc(-c3ccc(C(C)(C)C)cc3)ccc2n1 (centres unmarked) [Compound #22, 3-(4-(1-(5-(4-(tert-Butyl)phenyl)-2H-indazol-2-yl)butyl)benzamido)propanoic acid] | 800 nM
Cc1cc(Cl)ccc1-c1ccc2nn(C(CCC3CCCCC3)c3ccc(C(=O)NCCC(=O)O)cc3)cc2c1 (centres unmarked) [compound 247] | 37 nM
O=C(O)CCNC(=O)c1ccc(C(CCC(F)(F)F)n2ncc3cc(-c4ccc(Cl)cc4Cl)ccc32)cc1 (centres unmarked) [Compound #112, 3-[[4-[1-[5-(2,4-Dichlorophenyl)indazol-1-yl]-4,4,4-trifluorobutyl]benzoyl]amino]propanoic acid] | 410 nM
CC(C)CC(c1ccc(C(=O)NCCC(=O)O)cc1)n1ncc2cc(-c3cnc4ccccc4c3)ccc21 (centres unmarked) [compound 46] | 750 nM
Cc1c(-c2ccc(Cl)cc2Cl)ccc2nn(C(CC(C)C)c3ccc(C(=O)NCCC(=O)O)cc3)cc12 (centres unmarked) [Compound #190, 3-(4-(1-(5-(2,4-Dichlorophenyl)-4-methyl-2H-indazol-2-yl)-3-methylbutyl)benzamido)propanoic acid] | 25 nM
CCCCCCC(c1ccc(C(=O)NCCC(=O)O)nc1)n1ncc2cc(-c3ccc(C(F)(F)F)cc3)ccc21 (centres unmarked) [compound 193] | 155 nM
CCOc1c(-c2ccc(C(F)(F)F)cc2Cl)ccc2nn(C(CC(C)C)c3ccc(C(=O)NCCC(=O)O)nc3)cc12 (centres unmarked) [Compound #205, 3-(5-(1-(5-(2-Chloro-4-(trifluoromethyl)phenyl)-4-ethoxy-2H-indazol-2-yl)-3-methylbutyl)picolinamido)propanoic acid] | 57 nM
CCCCCCC(c1ccc(C(=O)NCCC(=O)O)cc1)n1cc2cc(-c3ccc(Cl)cc3C)ccc2n1 (centres unmarked) [compound 204] | 21 nM
